Measured values from US11945796B2, “Substituted pyridine derivatives as SARM1 inhibitors” (Nura Bio, Inc., priority 2020, dated 2024).
Like-named read-outs stand apart in the source and are kept apart here.

Biological target: T1, human SARM1(50-724) (Homo sapiens, UniProt Q6SZW1)
T1 construct: 40 nM human SARM1(50-724)
T1 sequence (Q6SZW1 50-724): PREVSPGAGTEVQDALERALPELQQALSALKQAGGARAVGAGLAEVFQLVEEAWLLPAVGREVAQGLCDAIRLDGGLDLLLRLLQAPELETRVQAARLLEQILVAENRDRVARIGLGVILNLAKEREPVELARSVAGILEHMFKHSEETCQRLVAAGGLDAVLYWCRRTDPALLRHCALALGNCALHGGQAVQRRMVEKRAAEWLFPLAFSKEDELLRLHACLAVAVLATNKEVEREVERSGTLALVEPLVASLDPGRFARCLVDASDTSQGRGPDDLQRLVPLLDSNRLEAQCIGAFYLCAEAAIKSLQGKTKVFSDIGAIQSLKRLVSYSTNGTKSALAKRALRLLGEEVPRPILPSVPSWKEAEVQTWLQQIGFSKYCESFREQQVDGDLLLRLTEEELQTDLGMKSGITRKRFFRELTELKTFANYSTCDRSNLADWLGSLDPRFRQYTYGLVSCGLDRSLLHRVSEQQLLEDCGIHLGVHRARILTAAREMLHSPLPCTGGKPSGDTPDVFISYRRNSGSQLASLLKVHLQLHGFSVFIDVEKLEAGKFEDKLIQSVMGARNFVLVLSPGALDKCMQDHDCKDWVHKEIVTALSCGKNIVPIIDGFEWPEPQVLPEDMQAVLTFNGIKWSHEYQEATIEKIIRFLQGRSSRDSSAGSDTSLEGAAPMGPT
Assay: SARM1 NADase biochemical assay (HPLC peak areas of NAD and NAM)
Conditions: for IC50: dose-response, 1:3 serial dilution from 100 μM, 40 nM SARM1, 0.3 mM NMN, 20 μM NAD, 60 min rt

With `O=C(Nc1ccn(Cc2ccncc2)n1)c1ccc(C(F)(F)F)cc1` [Example 57, N-(1-(Pyridin-4-ylmethyl)-1H-pyrazol-3-yl)-4-(trifluoromethyl)benzamide] the inhibition at 50 µM (50 μM compound, NAD peak area, read-out: Avg NAD % inhibition at 50 μM) was 0 to 50% and the inhibition at 50 µM (50 μM compound, NAM peak area, read-out: Avg NAM % inhibition at 50 μM) was 0 to 50%.
`CN(CC(F)(F)F)c1ccn(Cc2ccncc2)n1` [Example 90, N-Methyl-1-(pyridin-4-ylmethyl)-N-(2,2,2-trifluoroethyl)-1H-pyrazol-3-amine] showed an IC50 of 10 to 100 µM.
For `FC(F)(F)Cc1ccn(Cc2ccncc2)n1` [Example 29, 4-((3-(2,2,2-Trifluoroethyl)-1H-pyrazol-1-yl)methyl)pyridine], the IC50 was less than 1 µM.
For `FC(F)(F)Cn1ccc(Cc2ccncc2)n1` [Example 20, 4-((1-(2,2,2-Trifluoroethyl)-1H-pyrazol-3-yl)methyl)pyridine], the IC50 was 1 to 10 µM.
Compound `FC(c1ccncc1)n1ccc(CC(F)(F)F)n1` (racemic) [Example 105, (rac)-4-{Fluoro[3-(2,2,2-trifluoroethyl)-1H-pyrazol-1-yl]methyl}pyridine] has an inhibition at 50 µM (read-out: Avg NAD % inhibition at 50 μM) of 0 to 50% and an inhibition at 50 µM (read-out: Avg NAM % inhibition at 50 μM) of 0 to 50%.
